Here are results for four molecules from article PMC3311015 (Proceedings of the Japan Academy. Series B, Physical and …, 2011).

Each structure is given as a SMILES string. Like-named read-outs stand apart in the source and are kept apart here.

The nature of series [1]: in vivo. The settings on record: D-Trp i.p. 100 mg·kg^−1; for AUC / Cmax / k el / half-life: male, SD, rat, in vivo, ip, 100 mg/kg; for AUC: read-out: AUC of plasma D-Trp; for Cmax: read-out: Cmax of plasma D-Trp; for k el: read-out: Ke of plasma D-Trp (converted); for half-life: read-out: t1/2 of plasma D-Trp. Also noted: species or system Male SD rats. On the procedure: (§1) Administration of Ket to rats was carried out as previously reported.[9]) Ketamine hydrochloride (Wako Pure Chemicals Co., Ltd., Osaka, Japan) was dissolved in physiological saline ([…]) and then intraperitoneally (i.p.) administered (30 mg·kg^−1) to 7-week-old rats daily for 5 consecutive days. The control animals received only saline (1 mL·kg^−1·day^−1). The rats were used for experiments 4 weeks after cessation of the ketamine or saline treatment.
[…] A heparinized syringe with a 25-gauge needle was used to draw blood (approximately 0.20 mL) from the left jugular vein 0.5, 1, 1.5, 2, 3, 4, 5, and 6 h after administration of D-Trp. The blood was treated in a similar manner as described in previous paper.[17]) Plasma D-Trp concentration was determined by our previously published HPLC method.[17])
(§2) Pharmacokinetic parameters obtained in the present study were determined by a simplex method analysis or moment analysis. Statistical analyses were performed using a one-way analysis of variance (ANOVA), followed by Bonferroni’s multiple comparison test. A p value below 0.05 was judged as a significant difference.

For the next series, the system named is DAAO. Also on record: method as in PMID 20801337. The settings on record: D-Trp as substrate for DAAO; cited from earlier work.
The target in series [2] is T1, D-amino acid oxidase (DAAO) (Rattus norvegicus, UniProt O35078).
T1 construct: Male SD rats were purchased from Charles River Japan; from tissue; host or cells: whole animal (male SD rats); DAAO activity is attributed to liver and kidney cells
The series is described as follows: DAAO-inhibitory effect of MPC in vivo (change of plasma D-Trp concentration after MPC pretreatment). Also on record: species or system Male SD rats. The conditions noted are these: MPC 50 mg·kg^−1 i.p. 30 min before D-Trp 100 mg·kg^−1 i.p. How it is done: as §1
D-Trp was dissolved in PBS (10 mg·mL^−1) and administered i.p. to control or Ket-treated rats (100 mg·kg^−1; n = 3–5) at 30 min after i.p. administration of MPC (50 mg·kg^−1). A heparinized syringe with a 25-gauge needle was used to draw blood (approximately 0.20 mL) from the left jugular vein 0.5, 1, 1.5, 2, 3, 4, 5, and 6 h after administration of D-Trp. The blood was treated in a similar manner as described in previous paper.[17]) Plasma D-Trp concentration was determined by our previously published HPLC method.[17])
as §2

Series [3] in a line: in vivo. The class given is in vivo, Male SD rats. How it is done:
as §1
A solution of MPC (5.0 or 50 mg·kg^−1·3 mL^−1) was prepared in PBS/ethanol/PEG (2.8/0.1/0.1) and was i.p. administered to rats. A heparinized syringe with a 25-gauge needle was used to draw blood (approximately 0.20 mL) from the left jugular vein at 0.083, 0.25, 0.5, 1, 2, and 3 h after administration of MPC (5.0 mg·kg^−1, n = 4), or at 0.083, 0.25, 0.5, 1, and 3 h after administration of MPC (50 mg·kg^−1, n = 5–6). Before administration of either dose of MPC, blood (approximately 0.20 mL) was obtained from each rat and used as the control. The blood was centrifuged at 3,000 g for 10 min at 4℃ to obtain plasma. The plasma was transferred to another tube and stored at −80℃ until it was analyzed.
For determining the plasma concentration of MPC, 2 calibration curves (31.25–250 µM and 200–800 µM) were constructed. Ten microliters of PBS or rat blank plasma was spiked with 10 µL of 31.25–800 µM MPC dissolved in CH3CN and 10 µL of 200 µM I.S. dissolved in CH3CN, and vigorously mixed with 70 µL of CH3CN/MeOH (50/50). In the case of plasma samples from the rats administered MPC, 10 µL of CH3CN was used instead of MPC in CH3CN.
After centrifugation at 2,500 rpm for 5 min, 50 µL of the supernatant was sampled and evaporated in vacuo. The obtained residue was dissolved in 100 µL of the mobile phase, 60 µL (31.25–250 µM) or 20 µL (200–800 µM) of the final solution after filtration with Durapore® (0.2 µm membrane, Millipore K.K., Tokyo, Japan), and was injected into the LC-MS system.
The LC-MS apparatus comprised an Agilent 1200 series HPLC (Agilent Technologies, CA, U.S.A.) and a time of flight (TOF)-MS, JMS-T100 LP AccuTOF LC-Plus, equipped with an electrospray ionization (ESI) source (JEOL Co. Ltd., Tokyo, Japan). The separation column used in this study was TSKgel ODS-80Ts QA (150 mm × 2.0 mm; i.d., 5 µm) (Tosoh Corporation, Tokyo, Japan). For the mobile phase, 0.1% HCO2H in H2O/CH3CN (95/5) was eluted isocratically at 0.16 mL·min^−1. Column temperature was maintained at 40℃. The conditions for ESI-MS detection were as follows: positive ion mode; needle voltage was set at 2,000 V; and the ring lens and orifice 1 and 2 voltages were set at 8, 49, and 4 V, respectively. Nitrogen was used as the nebulizing and desolvating gas, and the pressure was constant at 0.617 MPa. The desolvation chamber and orifice 1 temperatures were 250℃ and 80℃, respectively. The data were obtained using Mass Center software, MS-56010MP (JEOL).
as §2

For series [4] the following is noted: rat, in vivo, 10 mg/kg; cited from earlier work.
For series [5] the following is noted: rat; cited from earlier work.
[6] abbreviates: Ket-treated rat, with pretreatment of MPC (50 mg·kg^−1).
Setting [7] is: Ket-treated rat, without pretreatment of MPC.
Where [8] appears, read: control rat, with pretreatment of MPC (50 mg·kg^−1).
Where [9] appears, read: control rat, without pretreatment of MPC.

T1 sequence (O35078 whole entry): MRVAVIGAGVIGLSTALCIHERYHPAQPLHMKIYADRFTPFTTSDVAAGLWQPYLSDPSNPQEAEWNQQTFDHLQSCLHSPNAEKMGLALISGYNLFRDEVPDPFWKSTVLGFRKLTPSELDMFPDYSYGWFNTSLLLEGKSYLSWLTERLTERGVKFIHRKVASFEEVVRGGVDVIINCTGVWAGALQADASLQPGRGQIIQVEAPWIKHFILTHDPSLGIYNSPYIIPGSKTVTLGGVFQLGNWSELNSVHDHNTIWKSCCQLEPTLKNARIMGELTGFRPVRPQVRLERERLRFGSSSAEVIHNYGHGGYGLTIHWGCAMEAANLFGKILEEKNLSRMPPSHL

With `N[C@H](Cc1c[nH]c2ccccc12)C(=O)O` [D-Trp, D-tryptophan], in “in vivo [1]” (setting [6]), the “CL of plasma D-Trp” value stood at 6.73 ± 1.67 mL/min/kg, the “Vd of plasma D-Trp” value amounted to 0.544 ± 0.09 L/kg, the area under the curve (AUC) is 983 ± 128 µM·h and the highest concentration (Cmax) is 608 ± 115 µM. For the same molecule, in the series “in vivo [1]” (setting [6]), the k el was 0.0002 s⁻¹ and the half-life was found to be 60.2 ± 6.1 min. In the series “in vivo [1]” (setting [7]), the “CL of plasma D-Trp” value was 11.6 ± 1.83 mL/min/kg, the “Vd of plasma D-Trp” value is 0.703 ± 0.07 L/kg, the exposure (AUC) came to 719 ± 63.6 µM·h and the maximum concentration (Cmax) amounted to 587 ± 33.5 µM. Moreover, in the series “in vivo [1]” (setting [7]), the k el is 0.000269 s⁻¹ and the half-life is 43.7 ± 2.79 min. Also, in “in vivo [1]” (setting [8]), the “CL of plasma D-Trp” value amounted to 3.05 ± 0.17 mL/min/kg, the “Vd of plasma D-Trp” value turned out to be 0.237 ± 0.02 L/kg, the AUC was determined as 2080 ± 138 µM·h and the Cmax was 1130 ± 75 µM. In addition, in “in vivo [1]” (setting [8]), the k el is 0.000214 s⁻¹ and the half-life came out at 54 ± 0.1 min. In addition, in “in vivo [1]” (setting [9]), the “CL of plasma D-Trp” value is 10 ± 0.33 mL/min/kg, the “Vd of plasma D-Trp” value was determined as 0.712 ± 0.04 L/kg, the area under the curve (AUC) was determined as 693 ± 42.9 µM·h and the peak concentration (Cmax) stood at 567 ± 42.6 µM. Besides, in “in vivo [1]” (setting [9]), the k el was 0.000236 s⁻¹ and the half-life amounted to 49.1 ± 1.3 min. In the series with DAAO, the Km was 845 µM.
On to `Cc1cc(C(=O)O)n[nH]1` [MPC, 3-methylpyrazole-5-carboxylic acid], for which the “plasma D-Trp concentrations after MPC pretreatment compared with no pretreatment” value in series [2] (Ket-treated rats) is given as “no significant increase”; in series [2] (control rats), “significantly higher”. For the same molecule, in “in vivo [3]” (MPC i.p. 5.0 mg·kg^−1), the “differences in PK parameters (Cmax, t1/2, AUC) of plasma MPC between control and Ket-treated rats” value was “no remarkable differences”. The “time at which the maximum concentration (Cmax) of plasma MPC was reached” value turned out to be 0.5 h in “in vivo [3]” (MPC i.p. 5.0 mg·kg^−1, Ket-treated rats) and 0.5 h in “in vivo [3]” (MPC i.p. 5.0 mg·kg^−1, control rats). For the same molecule, the “Cmax value of plasma MPC concentration in Ket-treated rats compared with control group” value in the series “in vivo [3]” (MPC i.p. 50 mg·kg^−1) was “significantly higher”. The “plasma MPC concentrations at 5.0 and 15 min in Ket-treated rats compared with control groups” value in the series “in vivo [3]” (MPC i.p. 50 mg·kg^−1, p < 0.01 and p < 0.05) is on record as “significantly higher”. For the same molecule, the “clearance (CL) of plasma MPC” value in “in vivo [3]” (control rats, i.p. administration, present data) was 305 mL/min/kg; in series [4], 3.67 mL/min/kg. In addition, the half-life in “in vivo [3]” (male, SD, rat, in vivo, ip, control rats, i.p. administration, present data, read-out: t1/2 of plasma MPC) amounted to 50.8 min. Moreover, in series [4], the “t1/2 of plasma MPC” value was 335 min.
For the molecule `CNC1(c2ccccc2Cl)CCCCC1=O` (centres unmarked) [ketamine], in series [5], the half-life in plasma was 30 to 36 min.
On to `NC1(c2ccccc2Cl)CCCCC1=O` (centres unmarked) [norketamine], for which, in series [5], the half-life in plasma was 36 to 48 min.
